Source: patent US5329012A, “Bis(acyloxmethyl)imidazole compounds” (The Research Foundation of State University of New York, priority 1987, dated 1994)
Like-named read-outs stand apart in the source and are kept apart here.

System: lymphocytic leukemia P-388
Experiment: P-388 lymphocytic leukemia test in mice (NCI Protocol 1.200)
Type: in vivo, CDF1 female mice
Conditions: for Tox.Day Surv. (survivors/animals tested): day 5; for response vs control in vivo at 50 mg/kg / response vs control in vivo at 100 mg/kg / response vs control in vivo at 200 mg/kg / response vs control in vivo at 12.5 mg/kg / response vs control in vivo at 25 mg/kg / response vs control in vivo at 400 mg/kg: Mus musculus, P388, 120 h, read-out: % T/C (mean survival time)
Method: Various bis(acyloxymethyl)imidazole derivatives prepared in accord with Examples I-XVIII and designated Samples A-J, were tested for anti-tumor activity in vivo using the lymphocytic leukemia P-388 test procedure in mice with Samples A and B representing controls. The test system was that employed by the National Cancer Institute (NCI) for the preliminary screening of anti-tumor agents, according to Protocol 1.200 (Cancer Chemo. Reports Part 3, Vol. 3, No. 2, page 9; 1972). In the study ascitic fluid containing 6×10^6 cells was implanted in the peritoneal cavity of CDF1 female mice. Each imidazole was given in a single injection, at four to six different dose levels (5-6 mice/dose level) daily for five (5) days beginning 24 hours after tumor innoculation. The control animals received saline. Test criteria was in accord with NCI protocol as follows: toxicity day evaluations were carried out on day 5 (number of survivors/number of animals tested); % T/C data was calculated through mean survival time [% T/C=(MST treated/MST control)x100, where MST=mean survival time]; BWD refers to the body weight difference (grams) of test animals compared to control animals; KE refers to the log of the tumor cell population at the end of treatment relative to tumor cell population before treatment.
Table I sets out the identification of the compounds corresponding to the samples used in this and further Examples. Table II sets out the results of the P-388 tests.

[1] = 100 mg/kg/inj, daily for 5 days
[2] = 200 mg/kg/inj, daily for 5 days
[3] = 400 mg/kg/inj, daily for 5 days
[4] = 12.5 mg/kg/inj, daily for 5 days

Row | SMILES | BWD (body weight difference vs control) (50 mg/kg/inj, daily for 5 days) | KE (log tumor cell population end vs before treatment) (50 mg/kg/inj, daily for 5 days) | Tox.Day Surv. (survivors/animals tested) (50 mg/kg/inj, daily for 5 days) | BWD (body weight difference vs control) [1] | KE (log tumor cell population end vs before treatment) [1] | Tox.Day Surv. (survivors/animals tested) [1] | BWD (body weight difference vs control) [2] | KE (log tumor cell population end vs before treatment) [2] | Tox.Day Surv. (survivors/animals tested) [2] | BWD (body weight difference vs control) [3] | KE (log tumor cell population end vs before treatment) [3] | response vs control in vivo at 50 mg/kg | BWD (body weight difference vs control) [4] | KE (log tumor cell population end vs before treatment) [4] | BWD (body weight difference vs control) (25 mg/kg/inj, daily for 5 days) | KE (log tumor cell population end vs before treatment) (25 mg/kg/inj, daily for 5 days) | response vs control in vivo at 25 mg/kg (25 mg/kg/inj, daily for 5 days) | response vs control in vivo at 50 mg/kg (50 mg/kg/inj, daily for 5 days) | response vs control in vivo at 100 mg/kg [1] | response vs control in vivo at 200 mg/kg [2] | other results
1 | CNC(=O)OCc1nc(SC)n(-c2ccccc2)c1COC(=O)NC [C, 1-phenyl-2-methylthio-4,5-bis-(N-methylcarbonyloxymethyl)imidazole] | -1.4 g | 0.60 | 5/5 | -1.6 g | 0.17 | 5/5 | -3.0 g | 1.46 | 5/5 | -5.2 g | toxic | 141% | – | – | – | – | – | – | – | – | Tox.Day Surv. (survivors/animals tested) [3]: 4/5; response vs control in vivo at 100 mg/kg: 133%; response vs control in vivo at 200 mg/kg: 156%
2 | CSc1nc(COC(=O)NC(C)C)c(COC(=O)NC(C)C)n1C [I, 1-methyl-2-methylthio-4,5-bis-[N-(2-propyl)carbonyloxymethyl)imidazole] | 0.0 g | -0.56 | – | -1.2 g | 1.89 | – | -1.8 g | 4.21 | – | -3.4 g | toxic | – | 2.6 g | -1.40 | 0.4 g | -0.91 | 125% | 130% | 163% | 184% | response vs control in vivo at 12.5 mg/kg [4]: 113%; response vs control in vivo at 400 mg/kg [3]: 70%
3 | CC(C)NC(=O)OCc1ncn(-c2ccccc2)c1COC(=O)NC(C)C [B, 1-phenyl-4,5-bis[N-(2-propyl)carbonyloxymethyl]-imidazole, reference compound] | 0.8 g | -1.62 | – | 0.6 g | -1.69 | – | 0.2 g | toxic | – | -2.3 g | toxic | – | -0.4 g | -1.53 | -0.1 g | -1.53 | 103% | 97% | 91% | 90% | response vs control in vivo at 12.5 mg/kg [4]: 103%; response vs control in vivo at 400 mg/kg [3]: 90%
4 | COc1nc(COC(=O)NC(C)C)c(COC(=O)NC(C)C)n1C [J, 1-methyl-2-methoxy-4,5-bis-[N-(2-propyl)carbonyloxymethyl)imidazole] | -1.0 g | 0.54 | – | -2.1 g | 1.87 | – | -2.6 g | 3.41 | – | -4.2 g | 3.88 | – | – | – | -0.1 g | -0.60 | 130% | 147% | 166% | 189% | response vs control in vivo at 400 mg/kg [3]: 196%
5 | CSc1nc(COC(=O)NC(C)C)c(COC(=O)NC(C)C)n1Cc1ccccc1 [F, 1-benzyl-2-methylthio-4,5-bis-[N-(2-propyl)carbonyloxymethyl)imidazole] | -0.5 g | -0.42 | – | -0.3 g | -0.39 | – | -2.2 g | -0.32 | – | -3.2 g | toxic | – | -0.2 g | -1.64 | -1.5 g | -1.59 | 101% | 110% | 111% | 116% | response vs control in vivo at 12.5 mg/kg [4]: 98%
6 | CNC(=O)OCc1ncn(-c2ccccc2)c1COC(=O)NC [A, 1-phenyl-4,5-bis(N-methylcarbonyloxymethyl)imidazole, reference compound] | -0.8 g | -1.52 | 5/5 | -0.4 g | -1.52 | 5/5 | -1.2 g | -1.55 | 5/5 | – | – | 101% | -0.4 g | -1.55 | 0.2 g | -1.61 | – | – | – | – | Tox.Day Surv. (survivors/animals tested) [4]: 5/5; Tox.Day Surv. (survivors/animals tested) (25 mg/kg/inj, daily for 5 days): 5/5; response vs control in vivo at 12.5 mg/kg: 99%; response vs control in vivo at 25 mg/kg: 95%; response vs control in vivo at 100 mg/kg: 101%; response vs control in vivo at 200 mg/kg: 99%
7 | CNC(=O)OCc1nc(SC)n(Cc2ccccc2)c1COC(=O)NC [E, 1-benzyl-2-methylthio-4,5-bis-(N-methylcarbonyloxymethyl)imidazole] | 0.9 g | -1.19 | 6/6 | 0.4 g | -1.19 | 6/6 | -0.4 g | -0.44 | 6/6 | -1.2 g | -0.71 | 116% | – | – | – | – | – | – | – | – | Tox.Day Surv. (survivors/animals tested) [3]: 6/6; response vs control in vivo at 100 mg/kg: 116%; response vs control in vivo at 200 mg/kg: 129%; response vs control in vivo at 400 mg/kg: 127%
8 | CNC(=O)OCc1nc(-c2ccccc2)n(C)c1COC(=O)NC [G, 1-methyl-2-phenyl-4,5-bis-(N-methylcarbonyloxymethyl)imidazole] | -0.8 g | -1.38 | 5/5 | -1.0 g | -1.31 | 5/5 | -2.2 g | -1.28 | 5/5 | – | – | 112% | -0.2 g | -1.56 | 0.0 g | -1.44 | – | – | – | – | Tox.Day Surv. (survivors/animals tested) [4]: 5/5; Tox.Day Surv. (survivors/animals tested) (25 mg/kg/inj, daily for 5 days): 5/5; response vs control in vivo at 12.5 mg/kg: 98%; response vs control in vivo at 25 mg/kg: 107%; response vs control in vivo at 100 mg/kg: 116%; response vs control in vivo at 200 mg/kg: 119%
9 | CSc1nc(COC(=O)NC(C)C)c(COC(=O)NC(C)C)n1-c1ccccc1 [D, 1-phenyl-2-methylthio-4,5-bis-[N-(2-propyl)carbonyloxymethyl]imidazole] | 0.3 g | -1.64 | – | -2.0 g | -1.62 | – | -2.8 g | -1.64 | – | -4.8 g | -1.52 | – | -0.2 g | -1.42 | 0.6 g | – | 101% | 95% | 97% | 90% | response vs control in vivo at 12.5 mg/kg [4]: 111%; response vs control in vivo at 400 mg/kg [3]: 100%
